# “And” between values parts separate entries of the source, which are not always exact repeats. Equal entries are not always repeated.
# Molecular target: Substance-P receptor (Cavia porcellus) (UniProt P30547)
# Assay: Relative affinity for Tachykinin receptor 1 compared with [Nle11]-SP
# Chain of Substance-P receptor (Cavia porcellus) (P30547 whole entry): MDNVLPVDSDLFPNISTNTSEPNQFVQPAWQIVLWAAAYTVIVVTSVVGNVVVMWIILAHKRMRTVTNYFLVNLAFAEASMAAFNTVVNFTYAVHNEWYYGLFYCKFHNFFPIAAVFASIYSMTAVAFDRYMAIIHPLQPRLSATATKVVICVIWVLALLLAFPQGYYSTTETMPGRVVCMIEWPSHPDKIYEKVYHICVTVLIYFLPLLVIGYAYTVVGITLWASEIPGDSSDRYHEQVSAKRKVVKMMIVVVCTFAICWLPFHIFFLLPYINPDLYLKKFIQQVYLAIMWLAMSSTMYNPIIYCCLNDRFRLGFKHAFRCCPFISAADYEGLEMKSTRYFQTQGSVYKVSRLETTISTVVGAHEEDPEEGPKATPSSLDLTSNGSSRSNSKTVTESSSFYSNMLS
row,RA,SMILES
1,100%,CCCC[C@H](NC(=O)[C@H](CC(C)C)NC(=O)CNC(=O)[C@H](Cc1ccccc1)NC(=O)[C@H](Cc1ccccc1)NC(=O)[C@H](CCC(N)=O)NC(=O)[C@H](CCC(N)=O)NC(=O)[C@@H]1CCCN1C(=O)[C@H](CCCCN)NC(=O)[C@@H]1CCCN1C(=O)[C@@H](N)CCCN=C(N)N)C(N)=O
2,50%,CCCC[C@H](NC(=O)[C@H](CC(C)C)NC(=O)CNC(=O)[C@H](Cc1ccc(N=[N+]=[N-])cc1)NC(=O)[C@H](Cc1ccccc1)NC(=O)[C@H](CCC(N)=O)NC(=O)[C@H](CCC(N)=O)NC(=O)[C@@H]1CCCN1C(=O)[C@H](CCCCN)NC(=O)[C@@H]1CCCN1C(=O)[C@@H](N)CCCN=C(N)N)C(N)=O
3,10%,CCCC[C@H](NC(=O)[C@H](CC(C)C)NC(=O)CNC(=O)[C@H](Cc1ccccc1)NC(=O)[C@H](Cc1ccc([N+](=O)[O-])cc1)NC(=O)[C@H](CCC(N)=O)NC(=O)[C@H](CCC(N)=O)NC(=O)[C@@H]1CCCN1C(=O)[C@H](CCCCN)NC(=O)[C@@H]1CCCN1C(=O)[C@@H](N)CCCN=C(N)N)C(N)=O
4,100%,CC(C)C[C@H](NC(=O)CNC(=O)[C@H](Cc1ccccc1)NC(=O)[C@H](Cc1ccccc1)NC(=O)[C@H](CCC(N)=O)NC(=O)[C@H](CCC(N)=O)NC(=O)[C@@H]1CCCN1C(=O)[C@H](CCCCN)NC(=O)[C@@H]1CCCN1C(=O)[C@@H](N)CCCN=C(N)N)C(=O)N[C@@H](Cc1ccccc1)C(N)=O

# Continued, molecule first:
row,SMILES,RA
1,CC(C)C[C@H](NC(=O)CNC(=O)[C@H](Cc1ccccc1)NC(=O)[C@H](Cc1ccccc1)NC(=O)[C@H](CCC(N)=O)NC(=O)[C@H](CCC(N)=O)NC(=O)[C@@H]1CCCN1C(=O)[C@H](CCCCN)NC(=O)[C@@H]1CCCN1C(=O)[C@@H](N)CCCN=C(N)N)C(=O)N[C@@H](Cc1ccc(N)cc1)C(N)=O,55% and 69%
2,CC(C)C[C@H](NC(=O)CNC(=O)[C@H](Cc1ccccc1)NC(=O)[C@H](Cc1ccccc1)NC(=O)[C@H](CCC(N)=O)NC(=O)[C@H](CCC(N)=O)NC(=O)[C@@H]1CCCN1C(=O)[C@H](CCCCN)NC(=O)[C@@H]1CCCN1C(=O)[C@@H](N)CCCN=C(N)N)C(=O)N[C@@H](Cc1ccc([N+]#N)cc1)C(N)=O,81% and 72%
3,CC(C)C[C@H](NC(=O)CNC(=O)[C@H](Cc1ccccc1)NC(=O)[C@H](Cc1ccccc1)NC(=O)[C@H](CCC(N)=O)NC(=O)[C@H](CCC(N)=O)NC(=O)[C@@H]1CCCN1C(=O)[C@H](CCCCN)NC(=O)[C@@H]1CCCN1C(=O)[C@@H](N)CCCN=C(N)N)C(=O)N[C@@H](Cc1ccc(N=[N+]=[N-])cc1)C(N)=O,48% and 50%

# Reference: ChEMBL document CHEMBL1122047
